# From patent US8952024B2, “Herbicidal pyrimidone derivatives” (E I du Pont de Nemours and Company, priority 2009, dated 2015)
# Columns and labels:
# Type in all cases: in vivo
# [1] = tested on: barnyardgrass (Echinochloa crus-galli); test: Test B flooded paddy test; conditions: for Plant response rating, Flood, Barnyardgrass: 250 g ai/ha, flooded paddy test, visual rating on 0 to 100 scale (0 no effect, 100 complete control) after 13 to 15 days; for Plant response rating, Barnyardgrass: Flood (flooded paddy test), 13 to 15 days; for Barnyardgrass plant response rating: Flood, 31 g ai/ha, scale 0 to 100 (0 no effect, 100 complete control)
# Method in brief: (§1)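 Greenhouse-held for 13 to 15 days, treated pots were compared visually with controls and scored 0–100 (0, no effect). Treatment had been made into paddy water kept at 3 cm above the soil, with plants at the 2-leaf stage.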
# [2] = tested on: umbrella sedge (Cyperus difformis); test: Test B flooded paddy test; conditions: for Plant response rating, Flood, Sedge, Umbrella: 250 g ai/ha, flooded paddy test, visual rating on 0 to 100 scale (0 no effect, 100 complete control) after 13 to 15 days; for Plant response rating, Sedge, Umbrella: Flood (flooded paddy test), 13 to 15 days; for Sedge, Umbrella plant response rating: Flood, 31 g ai/ha, scale 0 to 100 (0 no effect, 100 complete control)
# Method in brief: as §1
# [3] = tested on: ducksalad (Heteranthera limosa); test: Test B flooded paddy test; conditions: for Plant response rating, Flood, Ducksalad: 250 g ai/ha, flooded paddy test, visual rating on 0 to 100 scale (0 no effect, 100 complete control) after 13 to 15 days; for Plant response rating, Ducksalad: Flood (flooded paddy test), 13 to 15 days; for Ducksalad plant response rating: Flood, 31 g ai/ha, scale 0 to 100 (0 no effect, 100 complete control)
# Method in brief: as §1
# [4] = tested on: rice (Oryza sativa); test: Test B flooded paddy test; conditions: for Plant response rating, Flood, Rice: 250 g ai/ha, flooded paddy test, visual rating on 0 to 100 scale (0 no effect, 100 complete control) after 13 to 15 days; for Plant response rating, Rice: Flood (flooded paddy test), 13 to 15 days; for Rice plant response rating: Flood, 31 g ai/ha, scale 0 to 100 (0 no effect, 100 complete control)
# Method in brief: as §1
# [5] = tested on: pigweed (Amaranthus retroflexus); test: Test A pre-/postemergence plant response
# Method in brief: (§2)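 Both pre- and postemergence treatments are applied simultaneously, using chemicals formulated in a non-phytotoxic solvent mixture with surfactant. Postemergence plants are 2–10 cm high with one to two leaves. After approximately ten days in a greenhouse, injury is scored visually from 0 (none) to 100 (complete control) relative to untreated plants.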
# [6] = tested on: morningglory (Ipomoea spp.); test: Test A pre-/postemergence plant response
# Method in brief: as §2
# [7] = tested on: goosegrass (Eleusine indica); test: Test B pre-/postemergence plant response
# Method in brief: (§3)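 Plants treated either at seeding (loam/sand soil) or postemergence at 2 to 18 cm height, using a surfactant-containing non-phytotoxic solvent formulation. Evaluation was visual after 13 to 15 days, 0 to 100 scale relative to controls.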
# [8] = tested on: giant foxtail (Setaria faberii); test: Test B pre-/postemergence plant response
# Method in brief: as §3
# [9] = tested on: morningglory (Ipomoea coccinea); test: Test B pre-/postemergence plant response
# Method in brief: as §3
# [10] = tested on: wheat (Triticum aestivum); test: Test B pre-/postemergence plant response
# Method in brief: as §3
# [11] = tested on: woolly cupgrass (Eriochloa villosa); test: Test B pre-/postemergence plant response
# Method in brief: as §3
# [12] = tested on: johnsongrass (Sorghum halepense); test: Test B pre-/postemergence plant response
# Method in brief: as §3
# [13] = 62 g ai/ha, scale of 0 to 100 where 0 is no effect and 100 is complete control
# [14] = 125 g ai/ha, scale 0 to 100, 0 is no effect, 100 is complete control
# [15] = Postemergence, 125 g ai/ha, visual injury, 0 to 100 scale (0 no effect, 100 complete control), approx. ten days
# [16] = Postemergence, 500 g ai/ha, 0 to 100 scale, 0 = no effect, 100 = complete control, approx. ten days
# [17] = Preemergence, 125 g ai/ha, 0 to 100 scale, 0 = no effect, 100 = complete control
# [18] = Preemergence, 500 g ai/ha, visual injury, 0 to 100 scale (0 no effect, 100 complete control), approx. ten days
# [19] = 31 g ai/ha, postemergence, scale 0 to 100, 0 is no effect, 100 is complete control
# [20] = 250 g ai/ha, Preemergence, 0 to 100 scale
# [21] = Postemergence, 62 g ai/ha, scale 0 (no effect) to 100 (complete control), 13 to 15 days
# [22] = Postemergence, 125 g ai/ha, visual rating after 13 to 15 days, scale 0 (no effect) to 100 (complete control)
# [23] = Postemergence, 250 g ai/ha, scale 0 to 100 (0 no effect, 100 complete control)
# [24] = Preemergence, 31 g ai/ha, scale 0 to 100 (0 no effect, 100 complete control)
# [25] = Preemergence, 62 g ai/ha, scale 0 to 100, 0 no effect, 100 complete control
# [26] = Preemergence, 125 g ai/ha, scale 0 to 100, 0 no effect, 100 complete control
# [27] = 62 g ai/ha, postemergence, 0 is no effect, 100 is complete control, 13 to 15 days
structure (smiles),measurement,setting,value
O=C1CCCC(O)=C1C(=O)c1cnc(-c2cccs2)n(-c2ccccc2)c1=O [Compound 66],"Plant response rating, Flood, Barnyardgrass",[1],45
same,"Plant response rating, Barnyardgrass",[1]; [13],0
same,"Plant response rating, Barnyardgrass",[1]; [14],0
same,Barnyardgrass plant response rating,[1],0
same,"Plant response rating, Flood, Sedge, Umbrella",[2],50
same,"Plant response rating, Sedge, Umbrella",[2]; [13],0
same,"Plant response rating, Sedge, Umbrella",[2]; [14],30
same,"Sedge, Umbrella plant response rating",[2],0
same,"Plant response rating, Flood, Ducksalad",[3],20
same,"Plant response rating, Ducksalad",[3]; [13],0
same,"Plant response rating, Ducksalad",[3]; [14],0
same,Ducksalad plant response rating,[3],0
same,"Plant response rating, Flood, Rice",[4],20
same,"Plant response rating, Rice",[4]; [13],0
same,"Plant response rating, Rice",[4]; [14],0
same,Rice plant response rating,[4],0
same,Pigweed plant response rating,[5]; [15],100
same,"Plant response rating, Pigweed",[5]; [16],100
same,"Plant response rating, Pigweed",[5]; [17],90
same,"Plant response rating, Pigweed",[5]; [18],100
same,Morningglory plant response rating,[6]; [15],90
same,"Plant response rating, Morningglory",[6]; [16],90
same,"Plant response rating, Morningglory",[6]; [17],0
same,"Plant response rating, Morningglory",[6]; [18],30
same,"Plant response rating, Goosegrass",[7]; [19],65
same,"Plant response rating, Goosegrass",[7]; [20],98
same,"Plant response rating, Goosegrass",[7]; [21],65
same,"Plant response rating, Goosegrass",[7]; [22],70
same,"Plant response rating, Goosegrass",[7]; [23],95
same,"Plant response rating, Goosegrass",[7]; [24],35
same,"Plant response rating, Goosegrass",[7]; [25],75
same,"Plant response rating, Goosegrass",[7]; [26],90
same,"Plant response rating, Foxtail, Giant",[8]; [19],65
same,"Plant response rating, Foxtail, Giant",[8]; [20],80
same,"Plant response rating, Foxtail, Giant",[8]; [21],75
same,"Plant response rating, Foxtail, Giant",[8]; [22],80
same,"Plant response rating, Foxtail, Giant",[8]; [23],95
same,"Plant response rating, Foxtail, Giant",[8]; [24],15
same,"Plant response rating, Foxtail, Giant",[8]; [25],20
same,"Plant response rating, Foxtail, Giant",[8]; [26],75
same,"Plant response rating, Morningglory",[9]; [19],98
same,"Plant response rating, Morningglory",[9]; [21],100
same,"Plant response rating, Morningglory",[9]; [22],100
same,"Plant response rating, Morningglory",[9]; [23],100
same,"Plant response rating, Morningglory",[9]; [24],0
same,"Plant response rating, Morningglory",[9]; [25],20
same,"Plant response rating, Morningglory",[9]; [26],25
same,"Plant response rating, Wheat",[10]; [19],0
same,"Plant response rating, Wheat",[10]; [22],0
same,"Plant response rating, Wheat",[10]; [23],0
same,"Plant response rating, Wheat",[10]; [24],0
same,"Plant response rating, Wheat",[10]; [25],0
same,"Plant response rating, Wheat",[10]; [26],0
same,"Plant response rating, Cupgrass, Woolly",[11]; [19],40
same,"Plant response rating, Cupgrass, Woolly",[11]; [20],75
same,"Plant response rating, Cupgrass, Woolly",[11]; [21],40
same,"Plant response rating, Cupgrass, Woolly",[11]; [22],60
same,"Plant response rating, Cupgrass, Woolly",[11]; [23],75
same,"Plant response rating, Cupgrass, Woolly",[11]; [24],25
same,"Plant response rating, Cupgrass, Woolly",[11]; [25],40
same,"Plant response rating, Cupgrass, Woolly",[11]; [26],60
same,"Plant response rating, Johnsongrass",[12]; [19],45
same,"Plant response rating, Johnsongrass",[12]; [20],98
same,"Plant response rating, Johnsongrass",[12]; [21],60
same,"Plant response rating, Johnsongrass",[12]; [22],65
same,"Plant response rating, Johnsongrass",[12]; [23],65
same,"Plant response rating, Johnsongrass",[12]; [24],0
same,"Plant response rating, Johnsongrass",[12]; [25],55
same,"Plant response rating, Johnsongrass",[12]; [26],85
CC(C)Cc1ncc(C(=O)C2=C(O)CCCC2=O)c(=O)n1-c1ccccc1 [Compound 68],"Plant response rating, Flood, Barnyardgrass",[1],20
same,"Plant response rating, Barnyardgrass",[1]; [13],0
same,"Plant response rating, Barnyardgrass",[1]; [14],0
same,Barnyardgrass plant response rating,[1],0
same,"Plant response rating, Flood, Sedge, Umbrella",[2],0
same,"Plant response rating, Sedge, Umbrella",[2]; [13],0
same,"Plant response rating, Sedge, Umbrella",[2]; [14],0
same,"Sedge, Umbrella plant response rating",[2],0
same,"Plant response rating, Flood, Ducksalad",[3],40
same,"Plant response rating, Ducksalad",[3]; [13],0
same,"Plant response rating, Ducksalad",[3]; [14],30
same,Ducksalad plant response rating,[3],0
same,"Plant response rating, Flood, Rice",[4],30
same,"Plant response rating, Rice",[4]; [13],15
same,"Plant response rating, Rice",[4]; [14],20
same,Rice plant response rating,[4],0
same,Pigweed plant response rating,[5]; [15],100
same,"Plant response rating, Pigweed",[5]; [16],100
same,"Plant response rating, Pigweed",[5]; [17],90
same,"Plant response rating, Pigweed",[5]; [18],100
same,Morningglory plant response rating,[6]; [15],90
same,"Plant response rating, Morningglory",[6]; [16],90
same,"Plant response rating, Morningglory",[6]; [17],20
same,"Plant response rating, Morningglory",[6]; [18],50
same,"Plant response rating, Goosegrass",[7]; [19],65
same,Goosegrass plant response rating (0 to 100 scale),[7]; [27],70
same,"Plant response rating, Goosegrass",[7]; [20],98
same,"Plant response rating, Goosegrass",[7]; [22],85
same,"Plant response rating, Goosegrass",[7]; [23],95
same,"Plant response rating, Goosegrass",[7]; [24],80
same,"Plant response rating, Goosegrass",[7]; [25],95
same,"Plant response rating, Goosegrass",[7]; [26],98
same,"Plant response rating, Foxtail, Giant",[8]; [19],65
same,"Foxtail, Giant plant response rating (0 to 100 scale)",[8]; [27],80
same,"Plant response rating, Foxtail, Giant",[8]; [20],75
same,"Plant response rating, Foxtail, Giant",[8]; [22],85
same,"Plant response rating, Foxtail, Giant",[8]; [23],90
same,"Plant response rating, Foxtail, Giant",[8]; [24],0
same,"Plant response rating, Foxtail, Giant",[8]; [25],20
same,"Plant response rating, Foxtail, Giant",[8]; [26],55
same,"Plant response rating, Morningglory",[9]; [19],80
same,Morningglory plant response rating (0 to 100 scale),[9]; [27],85
same,"Plant response rating, Morningglory",[9]; [22],98
same,"Plant response rating, Morningglory",[9]; [23],100
same,"Plant response rating, Morningglory",[9]; [24],0
same,"Plant response rating, Morningglory",[9]; [25],55
same,"Plant response rating, Morningglory",[9]; [26],65
same,"Plant response rating, Wheat",[10]; [19],5
same,Wheat plant response rating (0 to 100 scale),[10]; [27],5
same,"Plant response rating, Wheat",[10]; [22],5
same,"Plant response rating, Wheat",[10]; [23],10
same,"Plant response rating, Wheat",[10]; [24],0
same,"Plant response rating, Wheat",[10]; [25],0
same,"Plant response rating, Wheat",[10]; [26],0
same,"Plant response rating, Cupgrass, Woolly",[11]; [19],10
same,"Cupgrass, Woolly plant response rating (0 to 100 scale)",[11]; [27],10
same,"Plant response rating, Cupgrass, Woolly",[11]; [20],85
same,"Plant response rating, Cupgrass, Woolly",[11]; [22],55
same,"Plant response rating, Cupgrass, Woolly",[11]; [23],75
same,"Plant response rating, Cupgrass, Woolly",[11]; [24],5
same,"Plant response rating, Cupgrass, Woolly",[11]; [25],20
same,"Plant response rating, Cupgrass, Woolly",[11]; [26],55
same,"Plant response rating, Johnsongrass",[12]; [19],10
same,Johnsongrass plant response rating (0 to 100 scale),[12]; [27],10
same,"Plant response rating, Johnsongrass",[12]; [20],95
same,"Plant response rating, Johnsongrass",[12]; [22],75
same,"Plant response rating, Johnsongrass",[12]; [23],100
same,"Plant response rating, Johnsongrass",[12]; [24],0
same,"Plant response rating, Johnsongrass",[12]; [25],5
same,"Plant response rating, Johnsongrass",[12]; [26],75
